Reference: patent US8778966B2, “Quinolinone derivatives as PARP and tank inhibitors” (Janssen Pharmaceutica, NV, priority 2007, dated 2014)

test system: tubulin; assay: Tubulin polymerization assay; type: biochemical; design: key: a compound showing 0 to 50% inhibition at 20 μM is reported as score 1; Score 2 compounds are defined as compound showing more than 50% inhibition at 20 μM and less than 50% inhibition at 5 μM; a compound showing more than 50% inhibition at 5 μM is reported as score 3; conditions: tested at 20 μM and 5 μM
Summary of the method: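 Cytoskeleton kit tubulin was run in a 10 µl final volume at 37 °C, with fluorescence read every minute for 1 h. Polymerization was taken as the maximum slope (4-point linear regression) and expressed as % of no-compound control. Compounds were tested at 20 µM, then at 5 µM if inhibition exceeded 50%, and scored by % inhibition.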

Structure (SMILES)	tubulin polymerisation score
CCc1cc2ccc([C@@](C)(C#N)Cc3ccccc3)cc2[nH]c1=O (single isomer, unassigned) [Compound 46]	2
CCc1cc2ccc([C@](C)(C#N)Cc3nc(OC)cc(OC)n3)cc2[nH]c1=O (single isomer, unassigned) [Compound 52]	1 (a compound showing 0 to 50% inhibition at 20 μM is reported as score 1)
CCc1cc2ccc([C@@](C)(C#N)Cc3nc(OC)cc(OC)n3)cc2[nH]c1=O (single isomer, unassigned) [Compound 53]	3 (a compound showing more than 50% inhibition at 5 μM is reported as score 3)
CCc1cc2ccc(C(C)(C#N)Cc3nnsc3Cl)cc2[nH]c1=O (stereo not drawn) [Compound 42]	1 (a compound showing 0 to 50% inhibition at 20 μM is reported as score 1)
CCc1cc2ccc(C(C)(C#N)Cc3cccc(N4CCN(C)CC4)c3)cc2[nH]c1=O (stereo not drawn) [Compound 66]	1 (a compound showing 0 to 50% inhibition at 20 μM is reported as score 1)
Cc1cc2ccc(C(C)(C#N)Cc3nc4ccccc4s3)cc2[nH]c1=O (stereo not drawn) [Compound 75]	1 (a compound showing 0 to 50% inhibition at 20 μM is reported as score 1)
CCc1cc2ccc(C(C)(C#N)Cc3nc4ccccc4o3)cc2[nH]c1=O (stereo not drawn) [Compound 85]	1 (a compound showing 0 to 50% inhibition at 20 μM is reported as score 1)
CCc1cc2ccc(C(C)(C#N)Cc3nn(C)c4ccccc34)cc2[nH]c1=O (stereo not drawn) [Compound 95]	2
CCc1cc2ccc(C(C)(C#N)Cc3cn4ccccc4n3)cc2[nH]c1=O (stereo not drawn) [Compound 96]	1 (a compound showing 0 to 50% inhibition at 20 μM is reported as score 1)
CCc1cc2ccc(C(C)(C#N)Cc3ccncc3)cc2[nH]c1=O (stereo not drawn) [Compound 98]	1 (a compound showing 0 to 50% inhibition at 20 μM is reported as score 1)
CCc1cc2ccc(C(C)(C#N)Cc3cc(Cl)ccc3Cl)cc2[nH]c1=O (stereo not drawn) [Compound 99]	3 (a compound showing more than 50% inhibition at 5 μM is reported as score 3)
CCc1cc2ccc(C(C)(C#N)Cc3ccc(F)c(C#N)c3)cc2[nH]c1=O (stereo not drawn) [Compound 267]	2
CCc1cc2ccc(C(C)(C#N)CCOc3ccccc3C#N)cc2[nH]c1=O (stereo not drawn) [Compound 276]	1 (a compound showing 0 to 50% inhibition at 20 μM is reported as score 1)
CCc1cc2ccc(C(C)(C#N)CCOc3cc(Cl)c(Cl)cc3Cl)cc2[nH]c1=O (stereo not drawn) [Compound 277]	2

test system: not given; assay: not given; conditions: not given

melting point	Structure (SMILES)
162 °C	CCc1cc2ccc([C@](C)(C#N)Cc3ccccc3)cc2[nH]c1=O (single isomer, unassigned) [Compound 45]
177 °C	CCc1cc2ccc([C@@](C)(C#N)Cc3ccccc3)cc2[nH]c1=O (single isomer, unassigned) [Compound 46]
176 °C	CCc1cc2ccc(C(C)(C#N)CC3COc4ccccc4O3)cc2[nH]c1=O (single isomer, unassigned) [Compound 47]
178 °C	CCc1cc2ccc([C@](C)(C#N)Cc3nc(OC)cc(OC)n3)cc2[nH]c1=O (single isomer, unassigned) [Compound 52]
163 °C	CCc1cc2ccc([C@@](C)(C#N)Cc3nc(OC)cc(OC)n3)cc2[nH]c1=O (single isomer, unassigned) [Compound 53]
90 °C	CCc1cc2ccc(C(C)(C#N)Cc3nc(OC)cc(OC)n3)cc2[nH]c1=O (stereo not drawn) [Compound 43]
168 °C	CCc1cc2ccc(C(C)(C#N)Cc3ccccc3)cc2[nH]c1=O (stereo not drawn) [Compound 44]
186 °C	CCc1cc2ccc(C(C)(C#N)Cc3cccc(Br)c3)cc2[nH]c1=O (stereo not drawn) [Compound 49]
192 °C	CCc1cc2ccc(C(C)(C#N)Cc3cccc(C#N)c3)cc2[nH]c1=O (stereo not drawn) [Compound 51]
216 °C	CCc1cc2ccc(C(C)(C#N)CCOc3ccc([N+](=O)[O-])cc3)cc2[nH]c1=O (stereo not drawn) [Compound 54]
> 260 °C	Cc1cc2ccc(C(C)(C#N)Cc3cc4ccccc4[nH]3)cc2[nH]c1=O (stereo not drawn) [Compound 234]

The next lines start with the compound.

Structure (SMILES)	melting point
CCc1cc2ccc(C(C)(C#N)Cc3cccc(C#C[Si](C)(C)C)c3)cc2[nH]c1=O (stereo not drawn) [Compound 1]	178 °C
CCc1cc2ccc(C(C)(C#N)Cc3cccc(COC)c3)cc2[nH]c1=O (stereo not drawn) [Compound 8]	122 °C
CCc1cc2ccc(C(C)(C#N)Cc3cccc(CO)c3)cc2[nH]c1=O (stereo not drawn) [Compound 9]	182 °C
CCc1cc2ccc(C(C#N)(Cc3ccccc3)CC3CC3)cc2[nH]c1=O (stereo not drawn) [Compound 28]	212 °C
CC(C#N)(Cc1ccccc1)c1ccc2cc(CO)c(=O)[nH]c2c1 (stereo not drawn) [Compound 40]	176 °C
CCc1cc2ccc(C(C)(C#N)Cc3c(F)ccc(C)c3F)cc2[nH]c1=O (stereo not drawn) [Compound 41]	190 °C
CCc1cc2ccc(C(C)(C#N)Cc3nnsc3Cl)cc2[nH]c1=O (stereo not drawn) [Compound 42]	220 °C
CCOP(=O)(OCC)c1cccc(CC(C)(C#N)c2ccc3cc(CC)c(=O)[nH]c3c2)c1 (stereo not drawn) [Compound 50]	80 °C
